Assay results: patent US10227312B2, “Glucosylceramide synthase inhibitors for the treatment of diseases” (BIOMARIN PHARMACEUTICAL INC., priority 2015, dated 2019)

Legend:
[1] = biological target: glucosylceramide synthase (GCS) (Canis lupus familiaris, UniProt A0A8I3MXG6); assay: GCS Enzymatic Assay (MDCK lysates); assay type: biochemical, canine; conditions: MDCK cell lysate, C6-NBD-Ceramide, 37° C. for 1 hour, LC/MS; read-out: Assay 1 (Enzyme Assay; MDCK lysates) IC50
Procedure: Madin-Darby canine kidney (MDCK) cell lysate was prepared using M-PER Mammalian Protein Extraction Reagent (Thermal Scientific) in the presence of a protease inhibitor cocktail (Roche). Protein concentration was determined using BCA assay kit (Pierce). […] 0.1% DMSO was used as mock treatment or control. The reaction was terminated by adding 100 μL acetonitrile solution and subjected to LC/MS analysis.
The quantitative analysis of NBD-Ceramide and glucosylceramide was performed on a Shimadzu ultra-fast liquid chromatography (Shimadzu, Japan) coupled with API 4000 triple quadrupole mass spectrometer (Applied Biosystems, Concord, Ontario, Canada). Sample separation was conducted on a Waters Xbridge™ BEH130 C18, 100 mm×4.6 mm i.d, 3.5 μm (Milford, Mass., USA). The mobile phase consisted of water and acetonitrile supplemented with 0.1% formic acid (v/v). The flow rate was 1.0 mL/min. The initial mobile phase was 20% acetonitrile and was ramped in a linear fashion to 50% acetonitrile in 0.4 min. From 0.4 to 1.5 min, the gradient was ramped to 98% acetonitrile, and then was held at […] until 8.0 min. Acetonitrile was reset to 20% in 1.5 min, and maintained until 10.0 min. The total run time was 10.0 min. The MS/MS detection was performed in ESI positive mode. […] The cell lysate was diluted with equal volume of acetonitrile. Aliquots of 50 μL diluted samples were added to 1.5 mL tubes, and 100 μL of acetonitrile containing internal standard (100 ng/mL tolbutamide) were added for protein precipitation. The mixture were vortexed and then centrifuged at 13000 rpm for 10 min. 70 μL of supernatant were mixed with 140 μL of H2O and the final solution were injected for LC/MS/MS analysis and IC50's and/or percent inhibitions calculated.

[2] = test system: K562 cells; assay: K562 Cell-Based Assay; conditions: Homo sapiens, NBD-Ceramide, LCMS, read-out: Assay 2 (Cellular Assay; K562 cells) IC50
Procedure: This assay was modified based on the study by Gupta et al. (J. Lipid Res. 2010, 51, 866). K562 cells were seeded into 12-well plates at 3×10^5 cells/well/mL in RPMI-1640 medium with 5% FBS and incubated at 37° C. for 24 h. One μL of a compound described herein at desired concentration (10 mM, 1 mM, 0.1 mM, 0.01 mM, 0.001 mM and 0.0001 mM in DMSO) or DMSO was added into the corresponding well and mixed. Cells were incubated at 37° C. for 4 h. Then 100 μL of RPMI-1640 medium containing 110 μM of NBD-Ceramide, 11% BSA, 5% FBS, and corresponding concentration of a compound described herein was added into each well and mixed. Cells were incubated for additional 0.5 h at 37° C., followed by washing the cells with ice-cold PBS (pH 7.4) twice with centrifugation and resuspended with 50 μL cold PBS+1% Triton X-100. The cell lysate was sonicated for 15 min before adding equal volume of methanol for LCMS analysis. A small aliquot of cell lysate was used to determine protein concentration by BCA assay kit. The HPLC equipment and methods used in Assay 1 were used in this assay as well and IC50's were calculated.

Sequence of glucosylceramide synthase (GCS) (A0A8I3MXG6 1-394): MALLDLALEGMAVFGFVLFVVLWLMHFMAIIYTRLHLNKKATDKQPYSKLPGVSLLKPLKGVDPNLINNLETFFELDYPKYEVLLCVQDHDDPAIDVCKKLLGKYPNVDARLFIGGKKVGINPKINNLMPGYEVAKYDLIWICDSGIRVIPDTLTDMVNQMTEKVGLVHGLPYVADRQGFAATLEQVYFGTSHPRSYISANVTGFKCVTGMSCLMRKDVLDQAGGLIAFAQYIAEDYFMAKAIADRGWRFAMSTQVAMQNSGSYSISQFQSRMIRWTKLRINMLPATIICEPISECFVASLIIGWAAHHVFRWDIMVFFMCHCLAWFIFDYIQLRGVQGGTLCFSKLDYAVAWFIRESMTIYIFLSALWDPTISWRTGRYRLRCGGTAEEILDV

With `O=C(N[C@H](CN1CCCC1)[C@H](O)c1ccc(OC2CC2)cc1)C1=NOCc2cc(-c3ccc(Cl)s3)ccc21` [Example 14, 7-(5-chlorothiophen-2-yl)-N-((1R,2R)-1-(4-cyclopropoxyphenyl)-1-hydroxy-3-(pyrrolidin-1-yl)propan-2-yl)-1H-benzo[d][1,2]oxazine-4-carboxamide] the IC50 [1] was less than 10 nM and the IC50 [2] was no more than 10 nM.

Work on `CN(C(=O)C1=NOCc2cc(-c3ccc(F)cc3)ccc21)[C@H](CN1CCCC1)[C@H](O)c1ccc(OC2CC2)c(F)c1` [Example 17, N-((1R,2R)-1-(4-cyclopropoxy-3-fluorophenyl)-1-hydroxy-3-(pyrrolidin-1-yl)propan-2-yl)-7-(4-fluorophenyl)-N-methyl-1H-benzo[d][1,2]oxazine-4-carboxamide] yielded an IC50 [1] of less than 10 nM and an IC50 [2] of no more than 10 nM.

`CN(C(=O)C1=NOCc2cc(-c3ccc(Cl)s3)ccc21)[C@H](CN1CCCC1)[C@H](O)c1ccc(OC2CC2)c(F)c1` [Example 18, 7-(5-chlorothiophen-2-yl)-N-((1R,2R)-1-(4-cyclopropoxy-3-fluorophenyl)-1-hydroxy-3-(pyrrolidin-1-yl)propan-2-yl)-N-methyl-1H-benzo[d][1,2]oxazine-4-carboxamide] gave an IC50 [1] of 10 to 100 nM and an IC50 [2] of no more than 10 nM.

For `CN(C(=O)C1=NOCc2cc(-c3ccc(F)cc3)ccc21)[C@H](CN1CCCC1)[C@H](O)c1ccc(OC2CC2)c(Cl)c1` [Example 19, N-((1R,2R)-1-(3-chloro-4-cyclopropoxyphenyl)-1-hydroxy-3-(pyrrolidin-1-yl)propan-2-yl)-7-(4-fluorophenyl)-N-methyl-1H-benzo[d][1,2]oxazine-4-carboxamide], the IC50 [1] was 10 to 100 nM and the IC50 [2] was no more than 10 nM.

`O=C(N[C@H](CN1CCCC1)[C@H](O)c1ccc(OC2CC2)c(Cl)c1)C1=NOCc2cc3ccccc3cc21` [Example 20, N-((1R,2R)-1-(3-chloro-4-cyclopropoxyphenyl)-1-hydroxy-3-(pyrrolidin-1-yl)propan-2-yl)-1H-naphtho[2,3-d][1,2]oxazine-4-carboxamide] gave an IC50 [1] of less than 10 nM and an IC50 [2] of no more than 10 nM.

Work on `CN(C(=O)C1=NOCc2cc(-c3ccc(F)cc3)ccc21)[C@H](CN1CCC1)[C@H](O)c1ccc(OC2CC2)c(Cl)c1` [Example 21, N-((1R,2R)-3-(azetidin-1-yl)-1-(3-chloro-4-cyclopropoxyphenyl)-1-hydroxypropan-2-yl)-7-(4-fluorophenyl)-N-methyl-1H-benzo[d][1,2]oxazine-4-carboxamide] yielded an IC50 [1] of 10 to 100 nM and an IC50 [2] of no more than 10 nM.

Compound `O=C(N[C@H](CN1CCCC1)[C@H](O)c1ccc(OC2CC2)c(Cl)c1)C1=NOCc2c1ccc1ccccc21` [Example 22, N-((1R,2R)-1-(3-chloro-4-cyclopropoxyphenyl)-1-hydroxy-3-(pyrrolidin-1-yl)propan-2-yl)-1H-naphtho[2,1-d][1,2]oxazine-4-carboxamide] has an IC50 [1] of less than 10 nM and an IC50 [2] of no more than 10 nM.

`CC1ON=C(C(=O)N[C@H](CN2CCCC2)[C@H](O)c2ccc(OC3CC3)c(Cl)c2)c2ccc(-c3ccc(F)cc3)cc21` (stereo partly drawn) [Example 24, N-((1R,2R)-1-(3-chloro-4-cyclopropoxyphenyl)-1-hydroxy-3-(pyrrolidin-1-yl)propan-2-yl)-7-(4-fluorophenyl)-1-methyl-1H-benzo[d][1,2]oxazine-4-carboxamide] was tested, and the IC50 [1] was 10 to 100 nM and the IC50 [2] was 10 to 100 nM.

In the case of `O=C(N[C@H](CN1CCCC1)[C@H](O)c1ccc(OC2CC2)cc1)C1=NOCc2c1ccc1ccccc21` [Example 25, N-((1R,2R)-1-(4-cyclopropoxyphenyl)-1-hydroxy-3-(pyrrolidin-1-yl)propan-2-yl)-1H-naphtho[2,1-d][1,2]oxazine-4-carboxamide], the IC50 [1] is reported as less than 10 nM and the IC50 [2] is reported as no more than 10 nM.

`O=C(N[C@H](CN1CCC1)[C@H](O)c1ccc(OC2CC2)c(Cl)c1)C1=NOCc2c1ccc1ccccc21` [Example 26, N-((1R,2R)-3-(azetidin-1-yl)-1-(3-chloro-4-cyclopropoxyphenyl)-1-hydroxypropan-2-yl)-1H-naphtho[2,1-d][1,2]oxazine-4-carboxamide] gave an IC50 [1] of less than 10 nM and an IC50 [2] of no more than 10 nM.

With `O=C(N[C@H](CN1CCCC1)[C@H](O)c1ccc(OC2CC2)c(Cl)c1)C1=NOCc2c1ccc1cccnc21` [Example 27, N-((1R,2R)-1-(3-chloro-4-cyclopropoxyphenyl)-1-hydroxy-3-(pyrrolidin-1-yl)propan-2-yl)-10H-[1,2]oxazino[4,5-h]quinoline-7-carboxamide] the IC50 [1] was less than 10 nM and the IC50 [2] was 10 to 100 nM.

`O=C(N[C@H](CN1CCCC1)[C@H](O)c1ccc(OC2CC2)c(Cl)c1)C1=NOCc2c1ccc1cc(F)ccc21` [Example 28, N-((1R,2R)-1-(3-chloro-4-cyclopropoxyphenyl)-1-hydroxy-3-(pyrrolidin-1-yl)propan-2-yl)-8-fluoro-1H-naphtho[2,1-d][1,2]oxazine-4-carboxamide] gave an IC50 [1] of less than 10 nM and an IC50 [2] of no more than 10 nM.

Work on `O=C(N[C@H](CN1CCCC1)[C@H](O)c1ccc(OC2CC2)cc1)C1=NOCc2c1ccc1cc(F)ccc21` [Example 29, N-((1R,2R)-1-(4-cyclopropoxyphenyl)-1-hydroxy-3-(pyrrolidin-1-yl)propan-2-yl)-8-fluoro-1H-naphtho[2,1-d][1,2]oxazine-4-carboxamide] yielded an IC50 [1] of less than 10 nM and an IC50 [2] of no more than 10 nM.

With `O=C(N[C@H](CN1CCC1)[C@H](O)c1ccc(OC2CC2)c(Cl)c1)C1=NOCc2c1ccc1cc(F)ccc21` [Example 30, N-((1R,2R)-3-(azetidin-1-yl)-1-(3-chloro-4-cyclopropoxyphenyl)-1-hydroxypropan-2-yl)-8-fluoro-1H-naphtho[2,1-d][1,2]oxazine-4-carboxamide] the IC50 [1] was less than 10 nM and the IC50 [2] was 10 to 100 nM.

Work on `O=C(N[C@H](CN1CCC1)[C@H](O)c1ccc(OC2CC2)cc1)C1=NOCc2c1ccc1cc(F)ccc21` [Example 31, N-((1R,2R)-3-(azetidin-1-yl)-1-(4-cyclopropoxyphenyl)-1-hydroxypropan-2-yl)-8-fluoro-1H-naphtho[2,1-d][1,2]oxazine-4-carboxamide] yielded an IC50 [1] of 10 to 100 nM and an IC50 [2] of 10 to 100 nM.

With `O=C(N[C@H](CN1CCCC1)[C@H](O)c1ccc(OC2CC2)c(Cl)c1)C1=NOCc2c1ccc1sc(Cl)cc21` [Example 32, 8-chloro-N-((1R,2R)-1-(3-chloro-4-cyclopropoxyphenyl)-1-hydroxy-3-(pyrrolidin-1-yl)propan-2-yl)-1H-thieno[3′,2′:3,4]benzo[1,2-d][1,2]oxazine-4-carboxamide] the IC50 [1] was less than 10 nM and the IC50 [2] was no more than 10 nM.

`Cn1ncc2c3c(ccc21)C(C(=O)N[C@H](CN1CCCC1)[C@H](O)c1ccc(OC2CC2)c(Cl)c1)=NOC3` [Example 33, N-((1R,2R)-1-(3-chloro-4-cyclopropoxyphenyl)-1-hydroxy-3-(pyrrolidin-1-yl)propan-2-yl)-7-methyl-1,7-dihydro-[1,2]oxazino[5,4-e]indazole-4-carboxamide] showed an IC50 [1] of less than 10 nM and an IC50 [2] of 10 to 100 nM.

For `Cn1ncc2ccc3c(c21)CON=C3C(=O)N[C@H](CN1CCCC1)[C@H](O)c1ccc(OC2CC2)c(Cl)c1` [Example 34, N-((1R,2R)-1-(3-chloro-4-cyclopropoxyphenyl)-1-hydroxy-3-(pyrrolidin-1-yl)propan-2-yl)-1-methyl-1,9-dihydro-[1,2]oxazino[4,5-g]indazole-6-carboxamide], the IC50 [1] was less than 10 nM and the IC50 [2] was 10 to 100 nM.

Compound `O=C(N[C@H](CN1CCCC1)[C@H](O)c1ccc(OC2CC2)c(Cl)c1)C1=NOCc2c1ccc1ncccc21` [Example 36, N-((1R,2R)-1-(3-chloro-4-cyclopropoxyphenyl)-1-hydroxy-3-(pyrrolidin-1-yl)propan-2-yl)-1H-[1,2]oxazino[5,4-f]quinoline-4-carboxamide] has an IC50 [1] of less than 10 nM and an IC50 [2] of 10 to 100 nM.

`O=C(N[C@H](CN1CCCC1)[C@H](O)c1ccc(OC2CC2)c(Cl)c1)C1=NOCc2c1ccc1cc(Cl)sc21` [Example 37, 2-chloro-N-((1R,2R)-1-(3-chloro-4-cyclopropoxyphenyl)-1-hydroxy-3-(pyrrolidin-1-yl)propan-2-yl)-9H-thieno[2′,3′:3,4]benzo[1,2-d][1,2]oxazine-6-carboxamide] showed an IC50 [1] of less than 10 nM and an IC50 [2] of no more than 10 nM.
